In patent US20090088432A1, “Thiazolinones and Oxazolinones and their Use as Ptp1b Inhibitors” (priority 2005, published 2009):
Counter-ions that a name gives are not always drawn.

Molecular target: T1, Recombinant human Protein-tyrosine phosphatase1B (PTP1B) (Homo sapiens, UniProt P18031)
T1 construct: Recombinant human Protein-tyrosine phosphatase1B (PTP1B) (amino acid 1-322 Biomol, USA); purchased Biomol, USA
T1 sequence (P18031 1-322): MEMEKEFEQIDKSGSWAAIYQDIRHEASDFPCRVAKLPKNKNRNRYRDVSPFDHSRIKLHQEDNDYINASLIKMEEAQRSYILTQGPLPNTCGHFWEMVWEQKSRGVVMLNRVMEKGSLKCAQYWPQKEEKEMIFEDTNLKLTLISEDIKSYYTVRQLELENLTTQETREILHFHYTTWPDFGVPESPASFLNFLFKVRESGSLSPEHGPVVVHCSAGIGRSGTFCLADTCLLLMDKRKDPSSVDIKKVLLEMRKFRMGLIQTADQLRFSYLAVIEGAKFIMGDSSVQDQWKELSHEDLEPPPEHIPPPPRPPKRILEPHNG
Experiment: PTP1B enzyme inhibition assay (pNpp substrate)
Format: biochemical
Conditions: inhibition of recombinant human PTP1B, pNpp 5 mM, 30 mins at 25° C; inhibitor concentration not given
Protocol: Protein tyrosine phosphatase 1B (PTP1B) is an intracellular enzyme which functions by removing the phosphate groups from phosphorylated tyrosine residues of cellular proteins. PTP1B has been implicated as a negative regulator of insulin action and therefore is of therapeutic interest. The ability of the test compounds to inhibit the activity of PTP1B is determined using an enzyme inhibition assay.
The assay is performed using two independent substrates of PTP1B namely, p-nitrophenyl phosphate (pNpp) and the phosphorylated Epidermal growth factor receptor peptide (EGFR).
In the assay performed with pNpp, the action of PTP1B results in the release of p-nitrophenol, which is yellow in colour and can be measured at 410 nm. In the case of the assay using EGFR, action of PTP1B results in the release of free phosphate group. This is trapped using a reagent containing ammonium molybdate and malachite green resulting in a colored complex whose absorbance can be measured at 620 nm.
1× Assay buffer 50 mM HEPES (pH 7.4) • 1 mM EDTA • 1 mM DTT • 0.05% Igepal® CA-630
Dilute recombinant Human PTP1B 1:150 in 1× Assay buffer for 10× stock,
Prepare 10× stock of pNpp (50 mM) in 1× Assay buffer
Prepare 100× stock in 100% DMSO, dilute 1:10 with 1× Assay buffer to get 10× stock in 10% DMSO.
PTP1B inhibition assay was performed using recombinant human PTP1B. PTP1B (0.016 μg/well) was incubated in a buffer containing 50 mM HEPES, 1 mM DTT, 1 mM EDTA and 0.05% Igepal® CA-630 with or without inhibitor (10× stock, final DMSO concentration is 1%) for 30 mins at 25° C. This was followed by addition of p-Nitrophenyl phosphate (pNpp) substrate (5 mM). The final volume of the reaction mixture is 50 μL and experiment was done in 96 well half area plate. The incubation was continued for 30 mins at 25° C. The conversion of pNpp to p-Nitrophenol (pNp) was measured at 410 nm in Spectramaxplus Spectrophotometer (Molecular Devices, USA).

Row | SMILES | Activity Score
1 | O=C([O-])Cc1ccc(NC2=NC(=O)C(=Cc3cc4ccccc4cc3OCc3ccc(F)cc3)S2)cc1.[Na+] [Compound 113, (4-{5-[3-(4-Fluoro-benzyloxy)-naphthalen-2-ylmethylene-4-oxo-4,5-dihydro-thiazol-2-ylamino)-phenyl]-acetyl}-sodium acetate] | (+++) (+++ = >50% inhibition)
2 | Cc1ccc(S(=O)(=O)NC(=O)Cc2ccc(NC3=NC(=O)C(=Cc4ccc5c(c4)OCCO5)S3)cc2)cc1 [Compound 125, N-(2-{4-[5-(2,3-Dihydro-benzo[1,4]dioxin-6-ylmethylene)-4-oxo-4,5-dihydro-thiazol-2-ylamino]-phenyl}-acetyl)-4-methyl-benzenesulfonamide] | (+++) (+++ = >50% inhibition)
3 | O=C(O)Cc1csc(NC2=NC(=O)C(=Cc3ccc(-c4ccccc4)cc3)S2)n1 [Compound 130, [2-(5-Biphenyl-4-ylmethylene-4-oxo-4,5-dihydro-thiazol-2-ylamino)-thiazol-4-yl]-acetic acid] | (++) (++ = 20-50% inhibition)
4 | Cc1ccc(S(=O)(=O)NC(=O)Cc2ccc(NC3=NC(=O)C(=Cc4ccc(-n5cnnn5)c(OCc5ccccc5)c4)S3)cc2)cc1.[Na] [Compound 131, N-(2-{4-[5-(3-Benzyloxy-4-tetrazol-1-yl-benzylidene)-4-oxo-4,5-dihydro-thiazol-2-ylamino]-phenyl}-acetyl)-4-methyl-benzenesulfonamide sodium salt] | (+++) (+++ = >50% inhibition)
5 | O=C(O)Cc1csc(NC2=NC(=O)C(=Cc3cc4ccccc4cc3OCc3ccccc3)S2)n1 [Compound 133, {2-[5-(3-Benzyloxy-naphthalen-2-ylmethylene)-4-oxo-4,5-dihydro-thiazol-2-ylamino]-thiazol-4-yl}-acetic acid] | (+++) (+++ = >50% inhibition)
6 | Cc1cc(C=C2SC(Nc3nc(CC(=O)O)cs3)=NC2=O)nn1-c1ccccc1 [Compound 134, {2-[5-(5-Methyl-1-phenyl-1H-pyrazol-3-ylmethylene)-4-oxo-4,5-dihydro-thiazol-2-ylamino]-thiazol-4-yl}-acetic acid] | (++) (++ = 20-50% inhibition)
7 | O=C(O)Cc1ccc(NC2=NC(=O)C(=Cc3cc4ccccc4cc3OCC3CCCO3)S2)cc1 (stereo not drawn) [Compound 142, (4-{4-Oxo-5-[3-(tetrahydro-furan-2-ylmethoxy)-naphthalen-2-ylmethylene]-4,5-dihydro-thiazol-2-ylamino}-phenyl)-acetic acid] | (++) (++ = 20-50% inhibition)
8 | COc1c(C=C2SC(Nc3ccc(CC(=O)O)cc3)=NC2=O)ccc2ccccc12 [Compound 146, {4-[5-(1-Methoxy-naphthalen-2-ylmethylene)-4-oxo-4,5-dihydro-thiazol-2-ylamino]-phenyl}-acetic acid] | (+++) (+++ = >50% inhibition)
9 | O=C(O)COc1ccc2cc(C=C3SC(Nc4ccc(CC(=O)O)cc4)=NC3=O)ccc2c1 [Compound 163, {4-[5-(6-Carboxymethoxy-naphthalen-2-ylmethylene)-4-oxo-4,5-dihydro-thiazol-2-ylamino]-phenyl}-acetic acid] | (+++) (+++ = >50% inhibition)
10 | O=C(O)Cc1ccc(NC2=NC(=O)C(=Cc3ccc4[nH]ccc4c3)S2)cc1 [Compound 170, {4-[5-(H-Indol-5-ylmethylene)-4-oxo-4,5-dihydro-thiazol-2-ylamino]-phenyl}-acetic acid] | (+++) (+++ = >50% inhibition)
11 | Cc1ccc(S(=O)(=O)NC(=O)Cc2ccc(NC3=NC(=O)C(=Cc4ccc(N5CCN(c6ccccn6)CC5)cc4)S3)cc2)cc1.[Na] [Compound 173, 4-Methyl-N-[2-(4-{4-oxo-5-[4-(4-pyridin-2-yl-piperazin-1-yl)-benzylidene]-4,5-dihydro-thiazol-2-ylamino}-phenyl)-acetyl]-benzenesulfonamide sodium salt] | (+++) (+++ = >50% inhibition)
12 | COc1cc2ccccc2cc1C=C1SC(Nc2ccc(CCC(=O)[O-])cc2)=NC1=O.[Na+] [Compound 177, 3-{-4-[5-(3-Methoxy-naphthalen-2-ylmethylene)-4-oxo-4,5-dihydro-thiazol-2-ylamino]-phenyl}-sodium propionate] | (+++) (+++ = >50% inhibition)
13 | O=C(O)Cc1ccc(NC2=NC(=O)C(=Cc3ccc(-c4ccc(O)cc4)cc3)S2)cc1 [Compound 199, {4-[5-(4′-Hydroxy-biphenyl-4-ylmethylene)-4-oxo-4,5-dihydro-thiazol-2-ylamino]-phenyl}-acetic acid] | (+++) (+++ = >50% inhibition)
14 | O=C(O)Cc1ccc(NC2=NC(=O)C(=Cc3ccc(-c4ccccc4)cc3)S2)cc1C(=O)O [Compound 200, 5-(5-Biphenyl-4-ylmethylene-4-oxo-4,5-dihydro-thiazol-2-ylamino)-2-carboxymethyl-benzoic acid] | (+++) (+++ = >50% inhibition)

Results, then the molecule that gave them:

Row | Activity Score | SMILES
15 | (+++) (+++ = >50% inhibition) | O=C(O)COc1ccc(-c2ccc(C=C3SC(Nc4ccc(CC(=O)O)cc4)=NC3=O)cc2)cc1 [Compound 201, {4-[5-(4′-Carboxymethoxy-biphenyl-4-ylmethylene)-4-oxo-4,5-dihydro-thiazol-2-ylamino]-phenyl}-acetic acid]
16 | (+++) (+++ = >50% inhibition) | O=C([O-])CCc1ccc(NC2=NC(=O)C(=Cc3ccc4cc(F)ccc4c3)S2)cc1.[Na+] [Compound 205, 3-{4-[5-(6-Fluoro-naphthalen-2-ylmethylene)-4-oxo-4,5-dihydro-thiazol-2-ylamino]-phenyl}-sodium propionate]
17 | (+++) (+++ = >50% inhibition) | NS(=O)(=O)c1ccc(-c2ccc(C=C3SC(Nc4ccc(CC(=O)O)cc4)=NC3=O)cc2)cc1 [Compound 210, {4-[4-Oxo-5-(4′-sulfamoyl-biphenyl-4-ylmethylene)-4,5-dihydro-thiazol-2-ylamino]-phenyl}-acetic acid]
18 | (++) (++ = 20-50% inhibition) | Cc1ccc(S(=O)(=O)NC(=O)Cc2ccc(NC3=NC(=O)C(=Cc4ccc(-c5ccc(O)cc5)cc4)S3)cc2)cc1.[Na].[Na] [Compound 212, N-(2-{4-[5-(4′Hydroxy-biphenyl-4-ylmethylene)-4-oxo-4,5-dihydro-thiazol-2-ylamino]-phenyl}-acetyl)-4-methyl-benzenesulfonamide di-sodium salt]
19 | (++) (++ = 20-50% inhibition) | Cc1ccc(S(=O)(=O)NC(=O)Cc2ccc(NC3=NC(=O)C(=Cc4cc5ccccc5cc4OCC(=O)O)S3)cc2)cc1 [Compound 213, [3-(4-Oxo-2-{4-[2-oxo-2-(toluene-4-sulfonylamino)-ethyl]-phenylamino}-4H-thiazol-5-ylidenemethyl)-naphthalen-2-yloxy]-acetic acid]
20 | (+++) (+++ = >50% inhibition) | CCOc1ccc(-c2ccc(C=C3SC(Nc4ccc(CC(=O)NS(=O)(=O)c5ccc(C)cc5)cc4)=NC3=O)cc2)cc1.[Na] [Compound 214, N-(2-{4-[5-(4′-Ethoxy-biphenyl-4-ylmethylene)-4-oxo-4,5-dihydro-thiazol-2-ylamino]-phenyl}-acetyl)-4-methyl-benzenesulfonamide sodium salt]
21 | (+++) (+++ = >50% inhibition) | Cc1ccc(S(=O)(=O)NC(=O)Cc2ccc(NC3=NC(=O)C(=Cc4ccc(-c5ccc(F)cc5)cc4)S3)cc2)cc1 [Compound 215, N-(2-{4-[5-(4′-Fluoro-biphenyl-4-ylmethylene)-4-oxo-4,5-dihydro-thiazol-2-ylamino]-phenyl}-acetyl)-4-methyl-benzenesulfonamide sodium salt]
